The results in this text go back to patent US20230391772A1, “METHODS AND COMPOSITIONS FOR TARGETED PROTEIN DEGRADATION” (Ranok Therapeutics (Hangzhou) Co. Ltd., priority 2020, published 2023).

The target in one assay is T1, HSP90a protein (Homo sapiens, UniProt P07900).
T1 construct: purchased BPS Bioscience 50298
The experiment in a line: HSP90α-binding fluorescent polarization (FP) assay, BODIPY-labeled RNK04010 probe. As to conditions: FP competition with RNK04010 (BODIPY-labeled), 5 nM, 300 min at 25° C. The procedure, abridged: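 Binding was scored by fluorescence polarization after adding N-terminal HSP90a to wells holding probe and compound, with compound tested from 20 μM to 5.2 nM. Probe-dependent times at 25° C were 120 min for FITC-geldanamycin and 300 min for RNK04010-BODIPY, both at 5 nM final.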

Assay [1] concerns NCI-H358 human non-small cell lung cancer. The experiment in a line: NCI-H358 CCK-8 proliferation assay. As to conditions: NCI-H358 cells, 72 hr. Format: cell-based. In outline:
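Three KRAS(G12C) lines are used, MIA PaCa-2 at two mutant copies and the NSCLC lines NCI-H358 and NCI-H23 at one. Each compound is titrated 3-fold from 20 μM to 1.02 nM, and proliferation is scored by CCK-8.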

Regarding `C=C(F)C(=O)N1CCN(c2nc(OC[C@@H]3CCCN3C(=O)COc3ccc(Nc4cc(-n5nc(C(F)(F)F)c6c5CC(C)(C)CC6=O)ccc4C(N)=O)cc3)nc3c2CCN(c2cccc4cccc(Cl)c24)C3)C[C@@H]1CC#N` [Compound 164, 2-((4-(2-((S)-2-(((7-(8-chloronaphthalen-1-yl)-4-((S)-3-(cyanomethyl)-4-(2-fluoroacryloyl)piperazin-1-yl)-5,6,7,8-tetrahydropyrido[3,4-d]pyrimidin-2-yl)oxy)methyl)pyrrolidin-1-yl)-2-oxoethoxy)phenyl)amino)-4-(6,6-dimethyl-4-oxo-3-(trifluoromethyl)-4,5,6,7-tetrahydro-1H-indazol-1-yl)benzamide], at HSP90a protein, the IC50 (in general, the concentration at which inhibition is half-maximal) is over 1000 nM. For the same compound, the EC50 (commonly the concentration needed to bring the measured effect to its halfway point) in assay [1] was over 1000 nM.

Compound `CCc1cc(-c2nnc(C(=O)NCC(F)(F)F)n2-c2ccc(CN(C)Cc3ccc(CC4CCN(C(=O)CCNc5nc6c(c(N7CCN(C(C)=O)CC7)n5)CCN(c5cc(O)cc7ccccc57)C6)CC4)cc3)cc2)c(O)cc1O` [Compound 113, 4-(4-(((4-((1-(3-((4-(4-acetylpiperazin-1-yl)-7-(3-hydroxynaphthalen-1-yl)-5,6,7,8-tetrahydropyrido[3,4-d]pyrimidin-2-yl)amino)propanoyl)piperidin-4-yl)methyl)benzyl)(methyl)amino)methyl)phenyl)-5-(5-ethyl-2,4-dihydroxyphenyl)-N-(2,2,2-trifluoroethyl)-4H-1,2,4-triazole-3-carboxamide, trifluoroacetic acid] displayed an IC50 at HSP90a protein of 100 to 1000 nM. This compound also returned an EC50 in assay [1] of 100 to 1000 nM.

`CC(=O)N1CCN(c2nc(NCCC(=O)N3CCC(Cc4ccc(-n5c(O)nnc5-c5cc(C(C)C)c(O)cc5O)cc4)CC3)nc3c2CCN(c2cc(O)cc4ccccc24)C3)CC1` [Compound 28, 3-((4-(4-acetylpiperazin-1-yl)-7-(3-hydroxynaphthalen-1-yl)-5,6,7,8-tetrahydropyrido[3,4-d]pyrimidin-2-yl)amino)-1-(4-(4-(3-(2,4-dihydroxy-5-isopropylphenyl)-5-hydroxy-4H-1,2,4-triazol-4-yl)benzyl)piperidin-1-yl)propan-1-one, trifluoroacetic acid] gave an IC50 on HSP90a protein of 100 to 1000 nM. The EC50 in assay [1] is over 1000 nM.

Compound `C=CC(=O)N1CCN(c2nc(NCCC(=O)NCc3ccc(CN4CCC(Cc5ccc(-n6c(C(=O)NCC(F)(F)F)nnc6-c6cc(CC)c(O)cc6O)cc5)CC4)cc3)nc3c2CCN(c2cc(O)cc4ccccc24)C3)CC1` [Compound 125, 4-(4-((1-(4-((3-((4-(4-acryloylpiperazin-1-yl)-7-(3-hydroxynaphthalen-1-yl)-5,6,7,8-tetrahydropyrido[3,4-d]pyrimidin-2-yl)amino)propanamido)methyl)benzyl)piperidin-4-yl)methyl)phenyl)-5-(5-ethyl-2,4-dihydroxyphenyl)-N-(2,2,2-trifluoroethyl)-4H-1,2,4-triazole-3-carboxamide, trifluoroacetic acid] displayed an IC50 at HSP90a protein of 100 to 1000 nM. In assay [1], the EC50 lay in the range of 100 to 1000 nM.

As for `CCC(=O)N1CCN(c2nc(NCCC(=O)N3CCC(CN4CCN(Cc5ccc(-n6c(C(=O)NC(CC)CC)nnc6-c6cc(CC)c(O)cc6O)cc5)CC4)CC3)nc3c2CCN(c2cc(O)cc4ccccc24)C3)CC1` [Compound 117, 5-(5-ethyl-2,4-dihydroxyphenyl)-4-(4-((4-((1-(3-((7-(3-hydroxynaphthalen-1-yl)-4-(4-propionylpiperazin-1-yl)-5,6,7,8-tetrahydropyrido[3,4-d]pyrimidin-2-yl)amino)propanoyl)piperidin-4-yl)methyl)piperazin-1-yl)methyl)phenyl)-N-(pentan-3-yl)-4H-1,2,4-triazole-3-carboxamide, trifluoroacetic acid], the IC50 on HSP90a protein was 100 to 1000 nM. Also, in assay [1], the concentration giving a half-maximal response (EC50) was 100 to 1000 nM.

Regarding `C=CC(=O)N1CCN(c2nc(NCCC(=O)N3CCN(c4ccc(-n5c(O)nnc5-c5cc(C(C)C)c(O)cc5O)cc4)CC3)nc3c2CCN(c2cccc4cccc(Cl)c24)C3)C[C@H]1CC#N` [Compound 88, (R)-2-(1-acryloyl-4-(7-(8-chloronaphthalen-1-yl)-2-((3-(4-(4-(3-(2,4-dihydroxy-5-isopropylphenyl)-5-hydroxy-4H-1,2,4-triazol-4-yl)phenyl)piperazin-1-yl)-3-oxopropyl)amino)-5,6,7,8-tetrahydropyrido[3,4-d]pyrimidin-4-yl)piperazin-2-yl)acetonitrile, trifluoroacetic acid], the IC50 on HSP90a protein lay in the range of 100 to 1000 nM. In assay [1], this compound gave an EC50 of over 1000 nM.

On HSP90a protein, `C=CC(=O)N1CCN(c2nc(NCCC(=O)NCCOCCOCCOc3ccc(-n4c(O)nnc4-c4cc(C(C)C)c(O)cc4O)cc3)nc3c2CCN(c2cccc4ccccc24)C3)C[C@@H]1CC#N` [Compound 92, (S)-3-((4-(4-acryloyl-3-(cyanomethyl)piperazin-1-yl)-7-(naphthalen-1-yl)-5,6,7,8-tetrahydropyrido[3,4-d]pyrimidin-2-yl)amino)-N-(2-(2-(2-(4-(3-(2,4-dihydroxy-5-isopropylphenyl)-5-hydroxy-4H-1,2,4-triazol-4-yl)phenoxy)ethoxy)ethoxy)ethyl)propanamide, trifluoroacetic acid] had an IC50 of under 100 nM. The same compound came in with an EC50 in assay [1] of over 1000 nM.

The compound `CCC(=O)N1CCN(c2nc(NCCC(=O)N3CCN(Cc4ccc(-n5c(O)nnc5-c5cc(C(C)C)c(O)cc5O)cc4)CC3)nc3c2CCN(c2cc(O)cc4ccccc24)C3)CC1` [Compound 35, 1-(4-(4-(3-(2,4-dihydroxy-5-isopropylphenyl)-5-hydroxy-4H-1,2,4-triazol-4-yl)benzyl)piperazin-1-yl)-3-((7-(3-hydroxynaphthalen-1-yl)-4-(4-propionylpiperazin-1-yl)-5,6,7,8-tetrahydropyrido[3,4-d]pyrimidin-2-yl)amino)propan-1-one, trifluoroacetic acid] displayed an IC50 on HSP90a protein of 100 to 1000 nM. In assay [1], this compound showed an EC50 of over 1000 nM.

On HSP90a protein, `CCc1cc(-c2nnc(O)n2-c2ccc(CNC(=O)CCNc3nc4c(c(N5CCN(C(C)=O)CC5)n3)CCN(c3cc(O)cc5ccccc35)C4)c(F)c2)c(O)cc1O` [Compound 43, 3-((4-(4-acetylpiperazin-1-yl)-7-(3-hydroxynaphthalen-1-yl)-5,6,7,8-tetrahydropyrido[3,4-d]pyrimidin-2-yl)amino)-N-(4-(3-(5-ethyl-2,4-dihydroxyphenyl)-5-hydroxy-4H-1,2,4-triazol-4-yl)-2-fluorobenzyl)propanamide] came in with an IC50 of over 1000 nM. The EC50 in assay [1] is over 1000 nM.

In the case of `CCCc1cc(-c2nnc(O)n2-c2ccc(CN3CCN(CC4CCN(C(=O)CCNc5nc6c(c(N7CCN(C(=O)CC)CC7)n5)CCN(c5cc(O)cc7ccccc57)C6)CC4)CC3)cc2)c(O)cc1O` [Compound 52, 1-(4-((4-(4-(3-(2,4-dihydroxy-5-propylphenyl)-5-hydroxy-4H-1,2,4-triazol-4-yl)benzyl)piperazin-1-yl)methyl)piperidin-1-yl)-3-((7-(3-hydroxynaphthalen-1-yl)-4-(4-propionylpiperazin-1-yl)-5,6,7,8-tetrahydropyrido[3,4-d]pyrimidin-2-yl)amino)propan-1-one], the IC50 at HSP90a protein lay in the range of 100 to 1000 nM. Also, the EC50 in assay [1] is over 1000 nM.

In turn, `C=CC(=O)N1CCN(c2nc(NCCC(=O)N3CCC(CN4CCC(Cc5ccc(-n6c(O)nnc6-c6cc(C(C)C)c(O)cc6O)cc5)CC4)CC3)nc3c2CCN(c2cc(O)cc4ccccc24)C3)CC1` [Compound 12, 1-(4-(2-((3-(4-((4-(4-(3-(2,4-dihydroxy-5-isopropylphenyl)-5-hydroxy-4H-1,2,4-triazol-4-yl)benzyl)piperidin-1-yl)methyl)piperidin-1-yl)-3-oxopropyl)amino)-7-(3-hydroxynaphthalen-1-yl)-5,6,7,8-tetrahydropyrido[3,4-d]pyrimidin-4-yl)piperazin-1-yl)prop-2-en-1-one, trifluoroacetic acid] came in with an IC50 at HSP90a protein of 100 to 1000 nM. This compound showed an EC50 in assay [1] of over 1000 nM.

Take `CCC(=O)N1CCN(c2nc(NCCC(=O)NCCc3ccc(-n4c(O)nnc4-c4cc(C(C)C)c(O)cc4O)cc3)nc3c2CCN(c2cc(O)cc4ccccc24)C3)CC1` [Compound 74, N-(4-(3-(2,4-dihydroxy-5-isopropylphenyl)-5-hydroxy-4H-1,2,4-triazol-4-yl)phenethyl)-3-((7-(3-hydroxynaphthalen-1-yl)-4-(4-propionylpiperazin-1-yl)-5,6,7,8-tetrahydropyrido[3,4-d]pyrimidin-2-yl)amino)propanamide, trifluoroacetic acid]: the IC50 at HSP90a protein fell in the range of 100 to 1000 nM. In assay [1], this compound gave an EC50 of over 1000 nM.

In turn, `CC(=O)N1CCN(c2nc(NCCC(=O)N3CCC(Cc4ccc(CN(C)Cc5ccc(-n6c(C(=O)NCC(F)(F)F)nnc6-c6cc(C)c(O)cc6O)cc5)cc4)CC3)nc3c2CCN(c2cccc4ccccc24)C3)C[C@H]1CC#N` [Compound 122, (R)-4-(4-(((4-((1-(3-((4-(4-acetyl-3-(cyanomethyl)piperazin-1-yl)-7-(naphthalen-1-yl)-5,6,7,8-tetrahydropyrido[3,4-d]pyrimidin-2-yl)amino)propanoyl)piperidin-4-yl)methyl)benzyl)(methyl)amino)methyl)phenyl)-5-(2,4-dihydroxy-5-methylphenyl)-N-(2,2,2-trifluoroethyl)-4H-1,2,4-triazole-3-carboxamide, trifluoroacetic acid] came in with an IC50 on HSP90a protein of over 1000 nM. This compound also showed an EC50 in assay [1] of over 1000 nM.

With `C=CC(=O)N1CCN(c2nc(NCCC(=O)NCc3ccc(-n4c(O)nnc4-c4ccc(O)cc4O)cc3)nc3c2CCN(c2cc(O)cc4ccccc24)C3)CC1` [Compound 27, 3-((4-(4-acryloylpiperazin-1-yl)-7-(3-hydroxynaphthalen-1-yl)-5,6,7,8-tetrahydropyrido[3,4-d]pyrimidin-2-yl)amino)-N-(4-(3-(2,4-dihydroxyphenyl)-5-hydroxy-4H-1,2,4-triazol-4-yl)benzyl)propanamide, trifluoroacetic acid], the IC50 at HSP90a protein was over 1000 nM. The compound also came in with an EC50 in assay [1] of over 1000 nM.
